Measured values from patent US9051339B2, “Sulfur-containing bicyclic compound” (Astellas Pharma Inc., priority 2013, dated 2015).

Key:
[1] = target: T1, heterodimers of GABAB1b and GABAB2 (Homo sapiens, UniProt O75899+Q9UBS5); assay: FLIPR intracellular calcium mobilization in HEK293 cells stably expressing GABAB receptor; assay type: cell-based; settings: 100 μM GABA = 100%; for EC50: concentration raising reaction rate from 5% with 1 μM GABA to 50%, read-out: Potency (PAM Potency of GABAB); for Emax: maximum reaction rate in presence of 1 μM GABA, test drug up to 30 μM, read-out: Efficacy (PAM Efficacy of GABAB)
T1 construct: host or cells: HEK293
T1 sequence (Q9UBS5 1-844 isoform Q9UBS5-2): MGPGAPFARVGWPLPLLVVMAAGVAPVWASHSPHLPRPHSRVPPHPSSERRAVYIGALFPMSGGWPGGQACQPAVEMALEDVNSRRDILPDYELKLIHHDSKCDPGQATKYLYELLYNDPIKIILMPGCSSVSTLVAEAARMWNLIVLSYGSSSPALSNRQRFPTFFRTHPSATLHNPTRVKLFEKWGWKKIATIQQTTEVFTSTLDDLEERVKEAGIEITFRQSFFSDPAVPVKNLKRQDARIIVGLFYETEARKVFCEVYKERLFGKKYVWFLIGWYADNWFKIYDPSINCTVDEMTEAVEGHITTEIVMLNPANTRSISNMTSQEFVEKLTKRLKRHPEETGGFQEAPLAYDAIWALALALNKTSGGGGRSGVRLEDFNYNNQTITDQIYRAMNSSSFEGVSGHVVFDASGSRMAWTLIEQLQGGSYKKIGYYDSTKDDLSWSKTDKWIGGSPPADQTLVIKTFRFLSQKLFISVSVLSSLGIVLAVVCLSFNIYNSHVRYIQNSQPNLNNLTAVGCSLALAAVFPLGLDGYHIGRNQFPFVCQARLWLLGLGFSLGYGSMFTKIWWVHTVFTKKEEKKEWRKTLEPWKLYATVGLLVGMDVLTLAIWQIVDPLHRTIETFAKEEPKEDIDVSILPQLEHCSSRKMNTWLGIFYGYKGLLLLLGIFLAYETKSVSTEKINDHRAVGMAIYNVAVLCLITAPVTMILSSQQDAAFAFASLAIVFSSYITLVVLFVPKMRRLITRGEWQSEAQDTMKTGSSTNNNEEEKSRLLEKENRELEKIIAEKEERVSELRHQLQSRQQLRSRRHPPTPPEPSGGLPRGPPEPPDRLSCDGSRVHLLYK
T1 sequence (O75899 42-941): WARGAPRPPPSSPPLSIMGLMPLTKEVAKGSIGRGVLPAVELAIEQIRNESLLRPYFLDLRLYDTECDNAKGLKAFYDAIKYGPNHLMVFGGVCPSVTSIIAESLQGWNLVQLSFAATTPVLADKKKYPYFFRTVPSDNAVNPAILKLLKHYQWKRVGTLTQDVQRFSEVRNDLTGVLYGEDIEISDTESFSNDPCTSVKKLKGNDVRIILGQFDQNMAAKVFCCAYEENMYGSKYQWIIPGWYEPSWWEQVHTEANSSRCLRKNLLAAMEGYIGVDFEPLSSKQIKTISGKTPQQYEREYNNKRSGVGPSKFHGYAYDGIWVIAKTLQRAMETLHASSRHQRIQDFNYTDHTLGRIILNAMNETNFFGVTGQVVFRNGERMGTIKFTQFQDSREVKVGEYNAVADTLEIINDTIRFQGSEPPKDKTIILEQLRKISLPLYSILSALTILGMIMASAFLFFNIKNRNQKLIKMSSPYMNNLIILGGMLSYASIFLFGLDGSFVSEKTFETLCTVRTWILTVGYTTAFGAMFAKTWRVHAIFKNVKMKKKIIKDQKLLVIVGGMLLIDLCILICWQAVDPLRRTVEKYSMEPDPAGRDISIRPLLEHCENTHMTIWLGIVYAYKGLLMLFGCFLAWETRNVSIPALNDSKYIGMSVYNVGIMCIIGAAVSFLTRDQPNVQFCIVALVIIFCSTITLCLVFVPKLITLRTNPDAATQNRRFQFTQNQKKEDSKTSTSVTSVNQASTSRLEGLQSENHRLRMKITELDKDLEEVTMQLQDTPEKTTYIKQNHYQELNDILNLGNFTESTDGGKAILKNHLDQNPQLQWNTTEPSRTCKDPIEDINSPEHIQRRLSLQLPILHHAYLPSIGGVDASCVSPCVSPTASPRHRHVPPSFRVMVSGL
Text: A natural GABAB receptor has a heterodimeric structure consisting of two kinds of subunits of GABAB1 and GABAB2 (Nature, 1997, vol. 386, p. 239-246) In the subunit of GABAB1, two major splice variants referred to as GABAB1a and 1b exist. However, the two variants have no difference in the pharmacological effects in the receptor-downstreaming signals (Nature, 1998, vol. 396, p. 683-687).
In HEK293 cells expressing the heterodimers of GABAB1b and GABAB2, the PAM action in the presence of GABA was measured over time with a change in the intracellular Ca^2+ concentration using RFU (relative fluorescence units) as an index, and evaluated.
All vectors, wherein each vector was formed by human GABAB1b (NM_021903. 2), GABAB2 (NM_005458. 7), or Gαqo chimera, were incorporated by lipofection to establish stably expressing human embryonic kidney-derived cell lines, HEK293 cells (ATCC).
The Gαqo chimera was fabricated by the following method. The genes coding human Gαq (NM_002072.3) were cloned, and C-terminal 15 base pairs (1107-1121 bp) of ORF (41-1121 bp) of Gaq was substituted with C-terminal 15 base pairs (1948-1962 bp) of ORF (898-1962 bp) of human Gao (NM_138736. 2) into a Gαqo chimera.
A change in the intracellular concentration of calcium mobilized due to activation of a GABAB receptor was measured with a Fluorometric Imaging Plate Reader (FLIPR, Molecular Devices). The stably expressing cells established as described above were proliferated in a D-MEM medium containing a screening agent (0.5 mg/mL G418 Disulfate and 0.2 mg/mL Hydromycin B solution), 1% penicillin/streptomycin, and 10% FCS. About 1×10^4 cells/well were diluted and seeded in a black-wall, 384-well poly-D-lysin-coated plate (Becton Dickinson) in a D-MEM medium containing 10% FCS, but not a selective agent and 1% penicillin/streptomycin. After 24 hours, the medium was removed from the plate, and a Fluo-4 loaded solution (20 μL) was added to each well, followed by incubation at room temperature for 2 hours. The fluorescent reagent loaded solution was removed from each well, the cells were washed with a base buffer three times, and then a base buffer (20 μL) was added thereto, followed by analysis with FLIPR TETRA (Molecular Devices). The base buffer (10 μL) solution of the test drug was added thereto to a final concentration (1 nM to 30 μM) and the measurement of a change in the fluorescence was initiated. Thereafter, GABA (1 μM, 20 μL) was added thereto and the measurement was continued. The change in the fluorescence was measured every two or five seconds.
The maximum reaction rate of 100 μM GABA was taken as 100%. […]

[2] = tested on: pressure pain threshold in the gastrocnemius muscle; assay: Pressure pain threshold in model with reserpine-induced muscle pain; assay type: in vivo; settings: oral, measured after 30 minutes; male SD rat; reserpine 1 mg/kg s.c. for 3 days
Description: This model is a model that mimics the pathological conditions of fibromyalgia. This test was carried out on the basis of the description in Pain, 2009, vol. 146, p. 26-33. Reserpine (1 mg/kg) was subcutaneously administered to the male SD rat (Japan SLC, Inc.)) once per day for 3 days. After 5 days, the solvent or the test drug was orally administered. After 30 minutes, the pressure pain threshold value was measured using a Randall-Selitto instrument (Muromachi Kikai Co., Ltd.) in the gastrocnemius muscle. The significant difference assay between the solvent group and the group administered with the test drug was carried out by comparison between the groups using a Student's t-test or a Dunnett's multiple comparison test. Here, the value obtained by administering a solvent to a normal rat not administered with reserpine was taken as 100%, and the value of the reserpine group administered with a solvent was taken as 0%. In each assay, if p<0.05 was satisfied, it was determined that there was a significant difference.

SMILES | EC50 [1] | Emax [1] | MED [2]
Cc1nc(CN2CC[C@@H](O)[C@H](O)C2)c2cc(C3CCC(C)(C)CC3)sc2n1 (single isomer, unassigned) [Ex31, trans-1-{[6-(4,4-dimethylcyclohexyl)-2-methylthieno[2,3-d]pyrimidin-4-yl]methyl}piperidine-3,4-diol] | 220 nM | 273% | –
Cc1nc(CN2CCS(=O)(=O)CC2)c2cc(C3CCC(C)(C)CC3)sc2n1 [Ex2, 6-(4,4-dimethylcyclohexyl)-4-[(1,1-dioxidothiomorpholin-4-yl)methyl]-2-methylthieno[2,3-d]pyrimidine] | 59 nM | 470% | 0.03 mg/kg
